Measured values from US9833497B2, “Human originated EGF domain proteins and use of the same” (CHENGDU SOURCEBIO LIMITED-LIABILITY COMPANY, priority 2013, dated 2017).

Tests used:
Format in all cases: cell-based
E. coli BL21 = experiment: MIC against Gram-negative bacteria: E. coli BL21; settings: 5×10^5 CFU/mL
Procedure, shortened: (§1)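 First, colonies from LB agar were grown in LB at 37° C, 185 rpm, to McFarland turbidity 0.5, then centrifuged and resuspended in fresh LB. Next, wells received 5×10^5 CFU/mL bacteria plus two-fold serially diluted EGF domain protein (triplicate). Finally, plates were shaken at 37° C and the no-growth concentration taken as MIC.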

Pseudomonas aeruginosa = experiment: MIC against Gram-negative bacteria: Pseudomonas aeruginosa; settings: 5×10^5 CFU/mL
Procedure, shortened: as §1

Proteus mirabilis = experiment: MIC against Gram-negative bacteria: Proteus mirabilis; settings: 5×10^5 CFU/mL
Procedure, shortened: as §1

E. coli DH5α = experiment: Antibacterial activity: MIC and growth curve against E. coli DH5α in 96-well plate; settings: minimal inhibitory concentration against E. coli DH5α; 96-well plate, 5×10^5 CFU/mL, 37° C., judged after 8 h
Procedure, shortened: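 Log-phase DH5α (OD600 about 0.5, 37° C, 185 rpm in LB) was pelleted, resuspended in fresh LB and seeded at 5×10^5 CFU/mL with recombinant protein at 50, 25 and 12.5 μg/mL (two-fold series), in triplicate. Plates were shaken at 175 rpm, 37° C, and OD600 was read every 30 min. MIC was the lowest concentration with no growth.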

Enterobacter cloacae = experiment: MIC against Gram-negative bacteria: Enterobacter cloacae; settings: 5×10^5 CFU/mL
Procedure, shortened: as §1

Serratia marcescens = experiment: MIC against Gram-negative bacteria: Serratia marcescens; settings: 5×10^5 CFU/mL
Procedure, shortened: as §1

Proteus vulgaris = experiment: MIC against Gram-negative bacteria: Proteus vulgaris; settings: 5×10^5 CFU/mL
Procedure, shortened: as §1

Aeromonas hydrophila = experiment: MIC against Gram-negative bacteria: Aeromonas hydrophila; settings: 5×10^5 CFU/mL
Procedure, shortened: as §1

Citrobacter diversus = experiment: MIC against Gram-negative bacteria: Citrobacter diversus; settings: 5×10^5 CFU/mL
Procedure, shortened: as §1

Moraxella catarrhalis = experiment: MIC against Gram-negative bacteria: Moraxella catarrhalis; settings: 5×10^5 CFU/mL
Procedure, shortened: as §1

Klebsiella pneumonia = experiment: MIC against Gram-negative bacteria: Klebsiella pneumonia; settings: 5×10^5 CFU/mL
Procedure, shortened: as §1

[1] = 10 h cultivation at 37° C., two-fold serial dilution
[2] = P. aeruginosa, 10 h cultivation at 37° C.
[3] = P. mirabilis, 10 h cultivation at 37° C.
[4] = E. cloacae, 10 h cultivation at 37° C.
[5] = S. marcescens, 10 h cultivation at 37° C.
[6] = P. vulgaris, 10 h cultivation at 37° C.
[7] = A. hydrophila, 10 h cultivation at 37° C.
[8] = C. diversus, 10 h cultivation at 37° C.
[9] = M. catarrhalis, 10 h cultivation at 37° C.
[10] = K. pneumonia, 10 h cultivation at 37° C.

Substance: PRT1063 (ELSPCRINNGGCQDLCLLTHQGHVNCSCRGGRILQDDLTCR; listed as Homo sapiens)
- MIC E. coli BL21 (E. coli BL21; [1]): 25 µg/mL
- MIC P. aeruginosa (Pseudomonas aeruginosa; [1]): 50 µg/mL
- MIC P. mirabilis (Proteus mirabilis; [1]): 25 µg/mL
- MIC (E. coli DH5α): 12.5 µg/mL
- MIC E. cloacae (Enterobacter cloacae; [1]): 12.5 µg/mL
- MIC S. marcescens (Serratia marcescens; [1]): 12.5 µg/mL
- MIC P. vulgaris (Proteus vulgaris; [1]): 25 µg/mL
- MIC A. hydrophila (Aeromonas hydrophila; [1]): 50 µg/mL
- MIC C. diversus (Citrobacter diversus; [1]): 12.5 µg/mL
- MIC M. catarrhalis (Moraxella catarrhalis; [1]): 50 µg/mL
- MIC K. pneumonia (Klebsiella pneumonia; [1]): 25 µg/mL

Substance: PRT243 (DVNECGMKPRPCQHRCVNTHGSYKCFCLSGHMLMPDATCV; listed as Homo sapiens)
- MIC (μg/mL) E. coli BL21 (E. coli BL21; 10 h cultivation at 37° C.): 12.5 µg/mL
- MIC (μg/mL) P. aeruginosa (Pseudomonas aeruginosa; [2]): 12.5 µg/mL
- MIC (μg/mL) P. mirabilis (Proteus mirabilis; [3]): 12.5 µg/mL
- MIC (E. coli DH5α): 12.5 µg/mL
- MIC (μg/mL) E. cloacae (Enterobacter cloacae; [4]): 12.5 µg/mL
- MIC (μg/mL) S. marcescens (Serratia marcescens; [5]): 12.5 µg/mL
- MIC (μg/mL) P. vulgaris (Proteus vulgaris; [6]): 25 µg/mL
- MIC (μg/mL) A. hydrophila (Aeromonas hydrophila; [7]): 25 µg/mL
- MIC (μg/mL) C. diversus (Citrobacter diversus; [8]): 12.5 µg/mL
- MIC (μg/mL) M. catarrhalis (Moraxella catarrhalis; [9]): 25 µg/mL
- MIC (μg/mL) K. pneumonia (Klebsiella pneumonia; [10]): 12.5 µg/mL

Substance: PRT1072 (TQQVCAGYCANNSTCTVNQGNQPQCRCLPGFLGDRCQ; listed as Homo sapiens)
- MIC E. coli BL21 (E. coli BL21; [1]): 12.5 µg/mL
- MIC P. aeruginosa (Pseudomonas aeruginosa; [1]): 12.5 µg/mL
- MIC P. mirabilis (Proteus mirabilis; [1]): 12.5 µg/mL
- MIC (E. coli DH5α): 50 µg/mL
- MIC E. cloacae (Enterobacter cloacae; [1]): 50 µg/mL
- MIC S. marcescens (Serratia marcescens; [1]): 12.5 µg/mL
- MIC P. vulgaris (Proteus vulgaris; [1]): 12.5 µg/mL
- MIC A. hydrophila (Aeromonas hydrophila; [1]): 12.5 µg/mL
- MIC C. diversus (Citrobacter diversus; [1]): 50 µg/mL
- MIC M. catarrhalis (Moraxella catarrhalis; [1]): 12.5 µg/mL
- MIC K. pneumonia (Klebsiella pneumonia; [1]): 25 µg/mL

Substance: PRT728 (ATNPCKDNNGGCEQVCVLSHRTDNDGLGFRCKCTFGFQLDTDERHCI; listed as Homo sapiens)
- MIC E. coli BL21 (E. coli BL21; 96-well plate, 37° C., 10 h): 25 µg/mL
- MIC P. aeruginosa (Pseudomonas aeruginosa; 96-well plate, 37° C., 10 h): 25 µg/mL
- MIC P. mirabilis (Proteus mirabilis; 96-well plate, 37° C., 10 h): 12.5 µg/mL
- MIC (E. coli DH5α): 25 µg/mL
- MIC E. cloacae (Enterobacter cloacae; 96-well plate, 37° C., 10 h): 25 µg/mL
- MIC S. marcescens (Serratia marcescens; 96-well plate, 37° C., 10 h): 25 µg/mL
- MIC P. vulgaris (Proteus vulgaris; 96-well plate, 37° C., 10 h): 12.5 µg/mL
- MIC A. hydrophila (Aeromonas hydrophila; 96-well plate, 37° C., 10 h): 12.5 µg/mL
- MIC C. diversus (Citrobacter diversus; 96-well plate, 37° C., 10 h): 25 µg/mL
- MIC M. catarrhalis (Moraxella catarrhalis; 96-well plate, 37° C., 10 h): 12.5 µg/mL
- MIC K. pneumonia (Klebsiella pneumonia; 96-well plate, 37° C., 10 h): 12.5 µg/mL

Substance: PRT88 (HRMDQQCPRGWWGSPTCGPCNCDVHKGFDPNCN; listed as Homo sapiens)
- MIC (μg/mL) E. coli BL21 (E. coli BL21; 96-well plate, 37° C., 10 h): 12.5 µg/mL
- MIC (μg/mL) P. aeruginosa (Pseudomonas aeruginosa; Pseudomonas aeruginosa, 96-well plate, 37° C., 10 h): 50 µg/mL
- MIC (μg/mL) P. mirabilis (Proteus mirabilis; Proteus mirabilis, 96-well plate, 37° C., 10 h): 50 µg/mL
- MIC (E. coli DH5α): 25 µg/mL
- MIC (μg/mL) E. cloacae (Enterobacter cloacae; Enterobacter cloacae, 96-well plate, 37° C., 10 h): 12.5 µg/mL
- MIC (μg/mL) S. marcescens (Serratia marcescens; Serratia marcescens, 96-well plate, 37° C., 10 h): 12.5 µg/mL
- MIC (μg/mL) P. vulgaris (Proteus vulgaris; Proteus vulgaris, 96-well plate, 37° C., 10 h): 25 µg/mL
- MIC (μg/mL) A. hydrophila (Aeromonas hydrophila; Aeromonas hydrophila, 96-well plate, 37° C., 10 h): 12.5 µg/mL
- MIC (μg/mL) C. diversus (Citrobacter diversus; Citrobacter diversus, 96-well plate, 37° C., 10 h): 12.5 µg/mL
- MIC (μg/mL) M. catarrhalis (Moraxella catarrhalis; Moraxella catarrhalis, 96-well plate, 37° C., 10 h): 12.5 µg/mL
- MIC (μg/mL) K. pneumonia (Klebsiella pneumonia; Klebsiella pneumonia, 96-well plate, 37° C., 10 h): 100 µg/mL

Substance: PRT1132 (DEHICTTQSPCQNGGQCMYDGGGEYHCVCLPGFHGRDCE; listed as Homo sapiens)
- MIC E. coli BL21 (E. coli BL21; [1]): 12.5 µg/mL
- MIC P. aeruginosa (Pseudomonas aeruginosa; [1]): 50 µg/mL
- MIC P. mirabilis (Proteus mirabilis; [1]): 25 µg/mL
- MIC (E. coli DH5α): 50 µg/mL
- MIC E. cloacae (Enterobacter cloacae; [1]): 50 µg/mL
- MIC S. marcescens (Serratia marcescens; [1]): 25 µg/mL
- MIC P. vulgaris (Proteus vulgaris; [1]): 50 µg/mL
- MIC A. hydrophila (Aeromonas hydrophila; [1]): 12.5 µg/mL
- MIC C. diversus (Citrobacter diversus; [1]): 50 µg/mL
- MIC M. catarrhalis (Moraxella catarrhalis; [1]): 12.5 µg/mL
- MIC K. pneumonia (Klebsiella pneumonia; [1]): 12.5 µg/mL

Substance: PRT198 (CQPKTCNMRGICNNKQHCHCNHEWAPPYC; listed as Homo sapiens)
- MIC (μg/mL) E. coli BL21 (E. coli BL21; 10 h cultivation at 37° C.): 12.5 µg/mL
- MIC (μg/mL) P. aeruginosa (Pseudomonas aeruginosa; [2]): 12.5 µg/mL
- MIC (μg/mL) P. mirabilis (Proteus mirabilis; [3]): 12.5 µg/mL
- MIC (E. coli DH5α): 12.5 µg/mL
- MIC (μg/mL) E. cloacae (Enterobacter cloacae; [4]): 12.5 µg/mL
- MIC (μg/mL) S. marcescens (Serratia marcescens; [5]): 50 µg/mL
- MIC (μg/mL) P. vulgaris (Proteus vulgaris; [6]): 25 µg/mL
- MIC (μg/mL) A. hydrophila (Aeromonas hydrophila; [7]): 25 µg/mL
- MIC (μg/mL) C. diversus (Citrobacter diversus; [8]): 50 µg/mL
- MIC (μg/mL) M. catarrhalis (Moraxella catarrhalis; [9]): 25 µg/mL
- MIC (μg/mL) K. pneumonia (Klebsiella pneumonia; [10]): 50 µg/mL
